Reference: ChEMBL document CHEMBL4052645, “Discovery of potent and efficacious pyrrolopyridazines as dual JAK1/3 inhibitors” (Bioorg Med Chem Lett, 2017)

Legend:
[1] = target: Tyrosine-protein kinase JAK3 (Homo sapiens) (UniProt P52333); assay: Inhibition of human JAK3 D2 domain (I781 to S1124 residues) expressed in mammalian expression system assessed as residual activity at 50 nM by KINOMEscan assay relative to control
[2] = target: Mitogen-activated protein kinase kinase kinase kinase 3 (Homo sapiens) (UniProt Q8IVH8); assay: Inhibition of wild-type human partial length KHS2 (M1 to D301 residues) expressed in bacterial expression system assessed as residual activity at 50 nM by Kinomescan method relative to control
[3] = target: Mitogen-activated protein kinase kinase kinase 2 (Homo sapiens) (UniProt Q9Y2U5); assay: Inhibition of wild-type human partial length MAP3K2 (S315 to H619 residues) expressed in mammalian expression system assessed as residual activity at 50 nM by Kinomescan method relative to control
[4] = target: 5'-AMP-activated protein kinase catalytic subunit alpha-1 (Homo sapiens) (UniProt Q13131); assay: Inhibition of wild-type human partial length AMPK alpha1 (M1 to E306 residues) expressed in bacterial expression system assessed as residual activity at 50 nM by Kinomescan method relative to control
[5] = target: Ribosomal protein S6 kinase alpha-6 (Homo sapiens) (UniProt Q9UK32); assay: Inhibition of wild-type human partial length C-terminal RSK4 kinase domain 2 (I401 to Y711 residues) expressed in bacterial expression system assessed as residual activity at 50 nM by Kinomescan method relative to control
[6] = target: Aurora kinase B (Homo sapiens) (UniProt Q96GD4); assay: Inhibition of wild-type human partial length AURB (D25 to A303 residues) expressed in mammalian expression system assessed as residual activity at 50 nM by Kinomescan method relative to control
[7] = target: Homeodomain-interacting protein kinase 3 (Homo sapiens) (UniProt Q9H422); assay: Inhibition of wild-type human partial length HIPK3 (M153 to N562 residues) expressed in mammalian expression system assessed as residual activity at 50 nM by Kinomescan method relative to control
[8] = target: Serine/threonine-protein kinase TAO2 (Homo sapiens) (UniProt Q9UL54); assay: Inhibition of wild-type human partial length TAO2 (M1 to A320 residues) expressed in mammalian expression system assessed as residual activity at 50 nM by Kinomescan method relative to control
[9] = target: Inhibitor of nuclear factor kappa-B kinase subunit beta (Homo sapiens) (UniProt O14920); assay: Inhibition of wild-type human full length IKK-beta (M1 to S756 residues) expressed in mammalian expression system assessed as residual activity at 50 nM by Kinomescan method relative to control
[10] = target: RAC-alpha serine/threonine-protein kinase (Homo sapiens) (UniProt P31749); assay: Inhibition of wild-type human partial length AKT1 expressed in bacterial expression system assessed as residual activity at 50 nM by Kinomescan method relative to control
[11] = target: Cyclin-dependent kinase 14 (Homo sapiens) (UniProt O94921); assay: Inhibition of wild-type human full length PFTAIRE1 (M1 to H451 residues) expressed in bacterial expression system assessed as residual activity at 50 nM by Kinomescan method relative to control
[12] = target: Receptor tyrosine-protein kinase erbB-4 (Homo sapiens) (UniProt Q15303); assay: Inhibition of wild-type human partial length ERBB4 (L690 to K994 residues) expressed in bacterial expression system assessed as residual activity at 50 nM by Kinomescan method relative to control
[13] = target: Aurora kinase A (Homo sapiens) (UniProt O14965); assay: Inhibition of wild-type human partial length AURA (E122 to K401 residues) expressed in mammalian expression system assessed as residual activity at 50 nM by Kinomescan method relative to control
[14] = target: Focal adhesion kinase 1 (Homo sapiens) (UniProt Q05397); assay: Inhibition of wild-type human partial length FAK (D402 to R696 residues) expressed in bacterial expression system assessed as residual activity at 50 nM by Kinomescan method relative to control
[15] = target: Casein kinase II subunit alpha' (Homo sapiens) (UniProt P19784); assay: Inhibition of wild-type human full length CK2A2 (M1 to R350 residues) expressed in mammalian expression system assessed as residual activity at 50 nM by Kinomescan method relative to control
[16] = target: Serine/threonine-protein kinase pim-3 (Homo sapiens) (UniProt Q86V86); assay: Inhibition of wild-type human partial length PIM3 (G16 to A317 residues) expressed in bacterial expression system assessed as residual activity at 50 nM by Kinomescan method relative to control
[17] = target: Receptor-interacting serine/threonine-protein kinase 1 (Homo sapiens) (UniProt Q13546); assay: Inhibition of wild-type human partial length RIPK1 (M1 to K305 residues) expressed in bacterial expression system assessed as residual activity at 50 nM by Kinomescan method relative to control
[18] = target: Insulin receptor (Homo sapiens) (UniProt P06213); assay: Inhibition of wild-type human partial length INSR (P997 to E1318 residues) expressed in mammalian expression system assessed as residual activity at 50 nM by Kinomescan method relative to control
[19] = target: Dual specificity tyrosine-phosphorylation-regulated kinase 2 (Homo sapiens) (UniProt Q92630); assay: Inhibition of wild-type human full length DYRK2 (M1 to S528 residues) expressed in mammalian expression system assessed as residual activity at 50 nM by Kinomescan method relative to control
[20] = target: Mitogen-activated protein kinase kinase kinase 15 (Homo sapiens) (UniProt Q6ZN16); assay: Inhibition of wild-type human partial length MAP3K15 (T625 to L932 residues) expressed in mammalian expression system assessed as residual activity at 50 nM by Kinomescan method relative to control
[21] = target: Ribosomal protein S6 kinase alpha-4 (Homo sapiens) (UniProt O75676); assay: Inhibition of wild-type human partial length N-terminal MSK2 kinase domain 1 expressed in bacterial expression system assessed as residual activity at 50 nM by Kinomescan method relative to control
[22] = target: Myosin-IIIb (Homo sapiens) (UniProt Q8WXR4); assay: Inhibition of wild-type human partial length MYO3B (M1 to D357 residues) expressed in bacterial expression system assessed as residual activity at 50 nM by Kinomescan method relative to control
[23] = target: Cyclin-dependent kinase 15 (Homo sapiens) (UniProt Q96Q40); assay: Inhibition of wild-type human full length PFTAIRE2 (M1 to W384 residues) expressed in bacterial expression system assessed as residual activity at 50 nM by Kinomescan method relative to control
[24] = target: Macrophage-stimulating protein receptor (Homo sapiens) (UniProt Q04912); assay: Inhibition of wild-type human partial length RON (I1057 to L1363 residues) expressed in bacterial expression system assessed as residual activity at 50 nM by Kinomescan method relative to control
[25] = target: Serine/threonine-protein kinase 33 (Homo sapiens) (UniProt Q9BYT3); assay: Inhibition of wild-type human full length STK33 (M1 to L514 residues) expressed in bacterial expression system assessed as residual activity at 50 nM by Kinomescan method relative to control

## CC1(C)[C@H](Nc2c(C(N)=O)cnn3cc(-c4ccccc4)cc23)CC[C@]1(C)N
[1]
  Activity: 3.8%
[2]
  Activity: 18%
[3]
  Activity: 30%
[4]
  Activity: 37%
[5]
  Activity: 50%
[6]
  Activity: 64%
[7]
  Activity: 72%
[8]
  Activity: 72%
[9]
  Activity: 73%
[10]
  Activity: 79%
[11]
  Activity: 83%
[12]
  Activity: 87%
[13]
  Activity: 88%
[14]
  Activity: 88%
[15]
  Activity: 92%
[16]
  Activity: 92%
[17]
  Activity: 92%
[18]
  Activity: 94%
[19]
  Activity: 100%
[20]
  Activity: 100%
[21]
  Activity: 100%
[22]
  Activity: 100%
[23]
  Activity: 100%
[24]
  Activity: 100%
[25]
  Activity: 100%

## COc1ccc(-c2cc3c(N[C@@H]4CC[C@](C)(N)C4(C)C)c(C(N)=O)cnn3c2)cn1
[1]
  Activity: 40%
[2]
  Activity: 49%
[3]
  Activity: 46%
[4]
  Activity: 62%
[5]
  Activity: 96%
[6]
  Activity: 100%
[7]
  Activity: 100%
[8]
  Activity: 81%
[9]
  Activity: 100%
[10]
  Activity: 95%
[11]
  Activity: 100%
[12]
  Activity: 100%
[13]
  Activity: 100%
[14]
  Activity: 88%
[15]
  Activity: 85%
[16]
  Activity: 72%
[17]
  Activity: 100%
[18]
  Activity: 72%
[19]
  Activity: 100%
[20]
  Activity: 98%
[21]
  Activity: 100%
[22]
  Activity: 100%
[23]
  Activity: 90%
[24]
  Activity: 100%
[25]
  Activity: 100%
